Laboratory results taken from BindingDB's records for doi:10.1111/j.1747-0285.2009.00852.x (University of Jordan, 2009).

These compounds were tested against Reverse transcriptase (Human immunodeficiency virus 2, UniProt Q06347) (assay: In Vitro Enzyme Assay). Conditions: pH 7.8; 37 °C.
Protocol: The reverse transcriptase inhibitory activity of compound was evaluated by a non-radioactive colorimetric assay method. This procedure uses RT to synthesize DNA starting from the template/primer hybridpoly (A) x oligo (dT)15 and avoids the use of radio-labeled nucleotides.

Reverse transcriptase, sequence (Q06347 whole entry): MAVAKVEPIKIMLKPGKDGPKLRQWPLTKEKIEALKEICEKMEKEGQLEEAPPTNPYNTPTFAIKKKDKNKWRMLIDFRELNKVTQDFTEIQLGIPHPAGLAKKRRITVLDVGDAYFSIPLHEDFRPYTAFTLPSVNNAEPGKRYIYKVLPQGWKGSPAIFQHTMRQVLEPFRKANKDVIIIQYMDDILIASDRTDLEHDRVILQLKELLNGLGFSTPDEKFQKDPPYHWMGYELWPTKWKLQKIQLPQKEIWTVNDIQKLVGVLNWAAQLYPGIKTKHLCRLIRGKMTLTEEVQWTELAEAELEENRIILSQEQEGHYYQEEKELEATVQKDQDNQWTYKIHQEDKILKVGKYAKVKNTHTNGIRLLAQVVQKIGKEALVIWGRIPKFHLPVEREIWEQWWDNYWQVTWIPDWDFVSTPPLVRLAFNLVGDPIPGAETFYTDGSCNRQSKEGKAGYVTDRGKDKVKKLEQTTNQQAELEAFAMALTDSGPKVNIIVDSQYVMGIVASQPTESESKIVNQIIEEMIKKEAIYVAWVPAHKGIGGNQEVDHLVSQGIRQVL

SMILES	IC50 [µM]
Cc1ccnc2c1NC(=O)c1cccnc1N2C1CC1 [BI-RG-587]	4.2
Cc1ccc(S(=O)(=O)Oc2ccc(Cl)cc2Cl)cc1 [NCI Code, 4179]	87.1
CCCCN(CCCC)C(=O)c1ccc(Cl)cc1Cl [NCI Code, 6050]	31.3

Results, then the compound that gave them:

IC50 [µM]	SMILES
18.9	CCCCCCc1nc2c([nH]1)c(=O)n(C)c(=O)n2C [NCI Code, 14129]
335	CCCC(=O)Oc1ccc(C(C)(C)C)cc1Br [NCI Code, 6927]
